Experimental data from US20120157401A1, “METHODS FOR TREATING NEUROFIBROMATOSIS” (PTC Therapeutics, Inc., priority 2009, published 2012).
Marks after values point to notes of the source that are not given here.

Columns and labels:
T47D xenografts = assay: T47D estrogen-sensitive breast cancer xenograft: tumor growth; conditions: 10 mg/kg oral QD
Description: Experimental Design. Estrogen pellets (0.72 mg/pellet) were implanted 30 days prior to cell implantation and again 60 days later. T47D estrogen-sensitive breast cancer cells (5×10^6 cells/mouse mixed 1:1 with […] ™) were implanted subcutaneously in female athymic nude mice. […] Tamoxifen was included as a positive control.
Tumor size was measured by calipers at periodic intervals. After 74 days of treatment, the mice were sacrificed.

[1] = test system: hypoxia-inducible endogenous VEGF expression; assay: Hypoxia-inducible endogenous VEGF expression ELISA in HeLa cells, dose-response EC50 (Table 3); type: cell-based, human; conditions: Homo sapiens; HeLa cells, hypoxic conditions (1% O2), 24-48 hours, VEGF in conditioned media; read-out: ELISA EC50
Outline: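 HeLa cells kept 24-48 h under hypoxia (1% O2, 5% CO2, nitrogen balance) with or without compound, e.g. seven concentrations; secreted VEGF in conditioned medium quantified by ELISA against a standard curve. Parallel Cell Titer Glo viability under identical conditions excludes cytotoxicity.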

[2] = test system: human VEGF121 and VEGF165; assay: HT1080 xenograft studies #21/#23: intra-tumor and pathologic plasma human VEGF (Compound 1205); type: in vivo; conditions: for Mean difference in human plasma VEGF (%) on Day 14 / Mean difference in human tumor VEGF (%) at Day 14: 14 days
Source text: Experimental Design. HT1080 cells (5×10^6 cells/mice) were implanted subcutaneously into male athymic nude mice. Treatment with vehicle alone or Compound 1205 was initiated when the median tumor volume was approximately 311±88 mm^3. Table 7 and Table 9 (study design #21 and #23) provide the study design for assessing tumor and plasma pathologic VEGF concentrations—each group in each study included eight (8) mice. When the tumors in vehicle-treated mice had reached the target size of ˜1200 mm^3 for study #21 and ˜1500 mm^3 for study #23, all mice in the study were sacrificed, and excised tumors were homogenized in buffer containing protease inhibitors. Both intra-tumor and pathologic plasma human VEGF levels were measured using an ELISA that recognizes human VEGF121 and VEGF165. Intra-tumor VEGF levels were normalized to the total tumor protein concentration and pathologic plasma VEGF levels were expressed in pg/mL. Because smaller tumors produce less VEGF per mg of tumor protein, intra-tumor VEGF levels were normalized to tumor size.

[3] = test system: HT1080 tumor cells in vivo; assay: HT1080 xenograft studies of Compound 1205, Compound #10 and Compound 1330: tumor growth; parameters: species or system athymic nude mice
Source text: Experimental Design. HT1080 cells (5×10^6 cells/mouse) were implanted subcutaneously in male athymic nude mice. […] For comparison, Compound #10 was included in this study.

HT1080 cells = assay: Cell cycle analysis by propidium iodide flow cytometry in HT1080 cells (percent cells in S-phase, Table 24); type: cell-based, human; conditions: for % Cells In S-Phase: HT1080 cells, 100 nM, 18 hours, normoxic, DMSO control […]
Description: Experimental Design. […] After treatment, cells were trypsinized, and stained with propidium iodide (PI) dye to measure DNA content of individual cells by flow cytometry. Output comprised histograms showing relative DNA content in 10,000 cells.
While compounds which cause greater than 20% of the cells to accumulate in S-phase at 100 nM are considered active, a larger percentage of cells may be accumulated in S-phase at lower doses depending on the Compound, as shown in FIG. 12 for example.

[4] = test system: soluble VEGF121 and VEGF165 isoforms; assay: VEGF inhibition EC50 by ELISA in the same human tumor cell lines (Table 25); type: cell-based; conditions: tumor cells; data not shown
Description: Results. […] The conditioned media were collected and assayed by ELISA for soluble VEGF121 and VEGF165 isoforms (as described in Section 9.1.1.1); results were calculated as percentage inhibition relative to vehicle treated controls. EC50 values were calculated from the concentration response curves.

IL-6 = assay: Patients: serum and plasma IL-6 levels; type: in vivo, human
Description: Subjects with NF2 may receive continuous daily treatment with a Compound administered at 100 mg per dose, 2 times a day (BID) for up to 1 year, or longer as appropriate, or until tumor progression. […] Tumor shrinkage or an improvement in hearing are indicators of efficacy.
Anti-angiogenic activity: Assessing VEGF concentrations provides a relevant and convenient mechanism-specific marker of Compound activity. […] For example, clinically validated ELISA kits (e.g., from R&D Systems, Minneapolis, Minn.) may be used to measure concentrations of VEGF, VEGF-C, P1GF, VEGFR, and inflammatory mediators such as IL-6 and IL-8. CT scan and MRI scan may also be used to assess peritumoral inflammation or edema.
Blood for VEGF, VEGFR, and Cytokines. Two blood samples (1 for plasma and 1 for serum) may be obtained for assessment of VEGF, VEGFR, and cytokine levels.
After processing, samples may be placed into a freezer at approximately −70° C. An ELISA-based multiplex system may be used to measure plasma VEGF and cytokine levels.

[5] = test system: human VEGF121 and VEGF165; assay: HT1080 xenograft time course: pathologic plasma human VEGF; type: in vivo; conditions: by Day 1
Description: (§1) Experimental Design. HT1080 cells (5×10^6 cells/mouse) were implanted subcutaneously in male athymic nude mice.
Tumor size was measured by calipers immediately pre-treatment and at the time of sacrifice on Day 1, 2, or 3 (5 mice per group per day). At sacrifice, the plasma was collected for assay of pathologic human VEGF concentration using an ELISA that recognizes human VEGF121 and VEGF165 (as described in Section 9.1.1.1).

HT1080 xenografts = assay: BrdU labeling of cells from HT1080 xenografts grown in nude mice; type: in vivo, athymic nude mice; conditions: Day 1, 2, 3; Compound #10 10 mg/kg oral QD, doxorubicin 6 mg/kg IP, bevacizumab 5 mg/kg IP
Description: as §1
The mice were sacrificed 3 hours later, and the tumors collected. A single cell suspension was prepared from the tumor cells. The cells were permeabilized and an antibody to BrdU was used to stain cells that had entered S phase during the labeling period. The proportion of cells actively synthesizing DNA was determined by cell sorting.

Question: CC/C(=C(\c1ccccc1)c1ccc(OCCN(C)C)cc1)c1ccccc1 [Tamoxifen, tamoxifen, reference compound] was tested. Which “Mean % Inhibition of Tumor Size vs Vehicle at Day 74” value (T47D xenografts) did it give?
Answer: 50%

Question: With O=C(Oc1ccc(Cl)cc1)N1CCc2c([nH]c3ccc(Cl)cc23)[C@@H]1c1ccc(OCC[C@H](O)CO)cc1 [Compound 1205] as the compound, how does the EC50 [1] read?
Answer: < 8 nM

Question: What about the “Inhibition of pathologic plasma human VEGF levels” value ([2]; 0.5 or 3 mg/kg QD) of the same compound?
Answer: more than 95%

Question: And the “Inhibition of tumor human VEGF levels” value ([2]; 0.5 or 3 mg/kg QD)?
Answer: more than 95%

Question: And the “Mean difference in human plasma VEGF (%) on Day 14” value (“Mean difference … (%) on Day 14” below) ([2]; Study #21, 0.5 mg/kg QD)?
Answer: 97%**

Question: What about the “Mean difference in human tumor VEGF (%) at Day 14” value (“Mean difference … (%) at Day 14” for short) ([2]; Study #21, 0.5 mg/kg QD) of the same compound?
Answer: 95%**

Question: And the “Mean difference … (%) on Day 14” value ([2]; Study #21, 3 mg/kg QD)?
Answer: 99%

Question: And the “Mean difference … (%) at Day 14” value ([2]; Study #21, 3 mg/kg QD)?
Answer: 98%**

Question: What about the “Mean difference … (%) on Day 14” value ([2]; Study #23, 1 mg/kg QD) of the same compound?
Answer: 100%**

Question: And the “Mean difference … (%) at Day 14” value ([2]; Study #23, 1 mg/kg QD)?
Answer: 95** %

Question: And the “Lowest dose at which active on tumor growth” value ([3]; HT1080 xenografts, QD)?
Answer: 0.3 mg/kg

Question: And the “Mean difference in tumor growth rate at the Day that the vehicle-treated tumors taken off study” value (“Mean difference in tumor growth rate” below) ([3]; Study 21, 0.5 mg/kg QD, Day 14)?
Answer: 61%**

Question: And the “Final mean terminal tumor size in treatment group” value (from here on “Final mean terminal tumor size”) ([3]; Study 21, 0.5 mg/kg QD, PD, 14 days)?
Answer: 580 mm^3

Question: What about the “Mean difference in tumor growth rate” value ([3]; Study 21, 3 mg/kg QD, Day 14) of the same compound?
Answer: 80%**

Question: What about the “Final mean terminal tumor size” value ([3]; Study 21, 3 mg/kg QD, PD, 14 days) of the same compound?
Answer: 379 mm^3

Question: What about the “Difference vs. vehicle in median number of days to reach 1000 mm^3” value (“Difference vs. vehicle in median number” for short) ([3]; Study 22, 0.5 mg/kg QD) of the same compound?
Answer: 11 days

Question: And the “Mean difference in tumor growth rate” value ([3]; Study 22, 0.5 mg/kg QD, Day 11)?
Answer: 62%**

Question: And the “Final mean terminal tumor size” value ([3]; Study 22, 0.5 mg/kg QD, Xeno)?
Answer: 1750 mm^3

Question: And the “Difference vs. vehicle in median number” value ([3]; Study 22, 3 mg/kg QD)?
Answer: 14** Days

Question: What about the “Mean difference in tumor growth rate” value ([3]; Study 22, 3 mg/kg QD, Day 11) of the same compound?
Answer: 75%**

Question: And the “Final mean terminal tumor size” value ([3]; Study 22, 3 mg/kg QD, Xeno)?
Answer: 1840 mm^3

Question: What about the “Mean difference in tumor growth rate” value ([3]; Study 23, 1 mg/kg QD, Day 14) of the same compound?
Answer: 59%**

Question: What about the “Final mean terminal tumor size” value ([3]; Study 23, 1 mg/kg QD, PD, 14 days) of the same compound?
Answer: 710 mm^3

Question: And the “Difference vs. vehicle in median number” value ([3]; Study 24a, 10 mg/kg QD)?
Answer: 14** Days

Question: What about the “Mean difference in tumor growth rate” value ([3]; Study 24a, 10 mg/kg QD, Day 11) of the same compound?
Answer: 76%**

Question: And the “Final mean terminal tumor size” value ([3]; Study 24a, 10 mg/kg QD, Xeno)?
Answer: 1400 mm^3

Question: And the “Difference vs. vehicle in median number” value ([3]; Study 24b, 0.3 mg/kg QD)?
Answer: 0.7 days

Question: What about the “Mean difference in tumor growth rate” value ([3]; Study 24b, 0.3 mg/kg QD, Day 15) of the same compound?
Answer: 28%

Question: And the “Final mean terminal tumor size” value ([3]; Study 24b, 0.3 mg/kg QD, Xeno)?
Answer: 1540 mm^3

Question: COc1ccc(OC(=O)N2CCc3c([nH]c4ccc(Br)cc34)[C@H]2c2ccc(Cl)cc2)cc1 was tested. Which “% Cells In S-Phase” value (HT1080 cells) did it give?
Answer: 16.5%

Question: Which “% Cells In S-Phase” value (HT1080 cells) does the source give for COc1ccc([C@@H]2c3[nH]c4ccc(Cl)cc4c3CCN2C(=O)Oc2ccc(Cl)cc2)cc1 here?
Answer: 16.8%

Question: For O=C(Oc1ccc(F)cc1)N1CCc2c([nH]c3ccc(Cl)cc23)[C@@H]1c1ccc(OCC[C@H](O)CO)cc1 [drawing 537], which “% Cells In S-Phase” value (HT1080 cells) is on record?
Answer: 20.6%

Question: Which results are given for NC(Cn1ccc(=O)c(O)c1)C(=O)O (stereo not drawn) [mimosine, reference compound]?
Answer: Effect on the cell cycle (HT1080 cells; tumor cells, data not shown): does not delay or prolong the cell cycle; Effect on VEGF production [4]: does not delay or prolong the cell cycle or reduce VEGF production

Question: COc1ccc([C@H]2c3[nH]c4ccc(Cl)cc4c3CCN2C(=O)Oc2ccc(Cl)cc2)cc1 [#10] was tested. Which EC50 [1] did it give?
Answer: < 8 nM

Question: And the “Serum IL-6 levels in patients (FIG. 37)” value (IL-6)?
Answer: reduced

Question: For O=C(Oc1ccc(Cl)cc1)N1CCc2c([nH]c3ccc(Cl)cc23)C1c1ccc(OCCN2CCCCC2)cc1 (stereo not drawn), which “% Cells In S-Phase” value (HT1080 cells) is on record?
Answer: 16.8%

Question: Which “% Cells In S-Phase” value (HT1080 cells) does the source give for O=C(Oc1ccc(Cl)cc1)N1CCc2c([nH]c3ccc(Cl)cc23)[C@H]1c1ccc(OCC[C@H](O)CO)cc1 [drawing 538] here?
Answer: 17%

Question: Which “% Cells In S-Phase” value (HT1080 cells) does the source give for COc1ccc(OC(=O)N2CCc3c([nH]c4ccc(Br)cc34)[C@@H]2c2ccc(Cl)cc2)cc1 [drawing 527] here?
Answer: 26.4%

Question: For COc1ccc([C@H]2c3[nH]c4ccc(Cl)cc4c3CCN2C(=O)Oc2ccc(Cl)cc2)cc1 [drawing 526], which “% Cells In S-Phase” value (HT1080 cells) is on record?
Answer: 26.1%

Question: For C=CCOc1ccc([C@H]2c3[nH]c4ccc(Cl)cc4c3CCN2C(=O)Oc2ccc(Cl)cc2)cc1 [drawing 533], which “% Cells In S-Phase” value (HT1080 cells) is on record?
Answer: 17.2%

Question: With COc1ccc(C2c3[nH]c4ccc(Cl)cc4c3CCN2C(=O)Oc2ccc(Cl)cc2)cc1 (stereo not drawn) as the compound, how does the “% Cells In S-Phase” value (HT1080 cells) read?
Answer: 15.3%

Question: COc1cccc2c1C(=O)c1c(O)c3c(c(O)c1C2=O)C[C@@](O)(C(=O)CO)C[C@@H]3O[C@H]1C[C@H](N)[C@H](O)[C@H](C)O1 [doxorubicin, reference compound] was tested. Which “Pathologic plasma human VEGF levels vs control animals” value [5] did it give?
Answer: numerically lower than in control animals

Question: What about the “BrdU staining of tumor cells (proportion of cells in S phase)” value (HT1080 xenografts) of the same compound?
Answer: decreased the percentage of tumor cells staining with BrdU

Question: With O=C(Oc1ccc(F)cc1)N1CCc2c([nH]c3ccc(Cl)cc23)[C@H]1c1ccc(OCCCn2ccnn2)cc1 as the compound, how does the “% Cells In S-Phase” value (HT1080 cells) read?
Answer: 16.4%

Question: With O=C(Oc1ccc(F)cc1)N1CCc2c([nH]c3ccc(Cl)cc23)[C@@H]1c1ccc(OCCCn2ccnn2)cc1 as the compound, how does the “% Cells In S-Phase” value (HT1080 cells) read?
Answer: 25.7%

Question: How did the “% Cells In S-Phase” value (HT1080 cells) turn out when C=CCOc1ccc([C@@H]2c3[nH]c4ccc(Cl)cc4c3CCN2C(=O)Oc2ccc(Cl)cc2)cc1 was run?
Answer: 17.9%

Question: O=C(Oc1ccc(Cl)cc1)N1CCc2c([nH]c3ccc(Cl)cc23)[C@@H]1c1ccc(OCC[C@H](O)CO)cc1 [drawing 529] was tested. Which “% Cells In S-Phase” value (HT1080 cells) did it give?
Answer: 20.0%
